Test results from ChEMBL document CHEMBL1201862, “PubChem BioAssay data set” (2004).
Counter-ions that a name gives are not always drawn.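 Five concentrations, 48 hours, 96-well plates. GI50 = concentration required for 50% inhibition of growth.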 Activity calls are given as the source filed them. Rule as the data show it: active = GI50 up to about 1.1 µM and inactive = higher.

Columns and labels:
Assay in all cases: inhibition of tumour cell growth, NCI panel, 48 h
M14 = test system: M14
UO-31 = test system: UO-31
786-0 = test system: 786-0
HT-29 = test system: HT-29
LOX IMVI = test system: LOX IMVI
IGROV-1 = test system: IGROV-1
K562 = test system: K562
SNB-19 = test system: SNB-19
TK-10 = test system: TK-10
SR = test system: SR
PC-3 = test system: PC-3
A549 = test system: A549
RXF 393 = test system: RXF 393
CAKI-1 = test system: CAKI-1
HCT-15 = test system: HCT-15
SF-268 = test system: SF-268
SW-620 = test system: SW-620
OVCAR-5 = test system: OVCAR-5
MOLT-4 = test system: MOLT-4
SN12C = test system: SN12C

Compound | GI50 (M14) | GI50 (UO-31) | GI50 (786-0) | GI50 (HT-29) | GI50 (LOX IMVI) | GI50 (IGROV-1) | GI50 (K562) | GI50 (SNB-19) | GI50 (TK-10) | GI50 (SR) | GI50 (PC-3) | GI50 (A549) | GI50 (RXF 393) | GI50 (CAKI-1) | GI50 (HCT-15) | GI50 (SF-268) | GI50 (SW-620) | GI50 (OVCAR-5) | GI50 (MOLT-4) | GI50 (SN12C)
O=S(=O)(O)c1ccc2cc(/N=N\c3cc(S(=O)(=O)O)c4cccnc4c3O)ccc2c1 | > 100 µM (inactive) | > 100 µM (inactive) | > 100 µM (inactive) | > 100 µM (inactive) | > 100 µM (inactive) | > 100 µM (inactive) | > 100 µM (inactive) | > 100 µM (inactive) | > 100 µM (inactive) | > 100 µM (inactive) | > 100 µM (inactive) | > 100 µM (inactive) | > 100 µM (inactive) | > 100 µM (inactive) | > 100 µM | > 100 µM (inactive) | > 100 µM (inactive) | > 100 µM (inactive) | > 100 µM (inactive) | 
CN(C)c1nc(-c2ccccc2)c(C(=O)c2c[nH]c3ccccc23)s1 | 4.59 µM (inactive) | 11.2 µM (inactive) | 8.61 µM (inactive) | 3.51 µM (inactive) | 6.49 µM (inactive) | 3.89 µM (inactive) | 4.07 µM (inactive) | 14.8 µM (inactive) | 7.53 µM (inactive) | 1.54 µM (inactive) | > 31.3 µM (inactive) | 6.62 µM (inactive) | 14.2 µM (inactive) | 9.4 µM (inactive) | 3.9 µM | 9.2 µM (inactive) | 5.24 µM (inactive) | > 24.3 µM (inactive) | 6.62 µM (inactive) | 18.2 µM (inactive)
CCOC(=O)/C(SC#N)=C(/N)N1CCCC1 | > 100 µM (inactive) | > 100 µM (inactive) | > 100 µM (inactive) | > 100 µM (inactive) | > 100 µM (inactive) | > 100 µM (inactive) | > 100 µM (inactive) | > 100 µM (inactive) | > 100 µM (inactive) | > 100 µM (inactive) | > 100 µM (inactive) | > 100 µM (inactive) | > 100 µM (inactive) | > 100 µM (inactive) | > 100 µM | > 100 µM (inactive) | > 100 µM (inactive) | > 100 µM (inactive) | > 100 µM (inactive) | > 100 µM (inactive)
CN(C)/N=N/c1ccc(NC=O)cc1 | > 100 µM (inactive) | 82.8 µM (inactive) | > 100 µM (inactive) | > 100 µM (inactive) | > 100 µM (inactive) | > 100 µM (inactive) | 43.3 µM (inactive) | > 100 µM (inactive) | > 100 µM (inactive) | 48.6 µM (inactive) | > 100 µM (inactive) | > 100 µM (inactive) | > 100 µM (inactive) | > 100 µM (inactive) | > 100 µM | 0.456 µM (active) | > 100 µM (inactive) | 90.4 µM (inactive) | 55.8 µM (inactive) | > 100 µM (inactive)
CCC1(O)CC(O)c2c(O)c3c(c(O)c2C1C(=O)OC)C(=O)c1cccc(O)c1C3=O (configuration not stated) | 2.87 µM (inactive) | 3.18 µM (inactive) | 2.75 µM (inactive) | 3.27 µM (inactive) | 2.37 µM (inactive) | 1.39 µM (inactive) | 1.96 µM (inactive) | 2.45 µM (inactive) | 7.67 µM (inactive) | 1.12 µM (inactive) | 2.86 µM (inactive) | 3.64 µM (inactive) | 7.67 µM (inactive) | 3.43 µM (inactive) | 1.54 µM | 2.44 µM (inactive) | 4.67 µM (inactive) | 4.86 µM (inactive) | 0.415 µM (active) | 2.92 µM (inactive)
CCc1ccc(COC(=O)C2=C(C)NC(C)=C(C(=O)OCc3ccc(CC)cn3)C2C2=COCCO2)nc1 | 16.9 µM (inactive) | 20.2 µM (inactive) | 23.2 µM (inactive) | 21.4 µM (inactive) | 15.2 µM (inactive) | 39.8 µM (inactive) | 18.2 µM (inactive) | 18.8 µM (inactive) | 33.7 µM (inactive) | 21.8 µM (inactive) | 16 µM (inactive) | 25.2 µM (inactive) | 15.4 µM (inactive) | 23.9 µM (inactive) | 22.7 µM | 27.4 µM (inactive) | 27.8 µM (inactive) | 28.1 µM (inactive) | 12.6 µM (inactive) | > 10 µM (inactive)
CNC(=S)N/N=C(\C)c1nc2cccnc2[nH]1 | 45.2 µM (inactive) | 9.25 µM (inactive) | 43.7 µM (inactive) | 36.8 µM (inactive) | 43.6 µM (inactive) | 62.7 µM (inactive) | 95.3 µM (inactive) | > 53.8 µM (inactive) | 32.5 µM (inactive) | 28.4 µM (inactive) | 48.5 µM (inactive) | 31.1 µM (inactive) | 62.2 µM (inactive) | 33.8 µM (inactive) | 29.2 µM | 37.7 µM (inactive) | 52.8 µM (inactive) | 30.8 µM (inactive) | 31.9 µM (inactive) | 98.2 µM (inactive)
CS(=O)(=O)OCCCNCCCOS(C)(=O)=O | 753 µM (inactive) | 1990 µM (inactive) | 881 µM (inactive) | 1210 µM (inactive) | 569 µM (inactive) | 2110 µM (inactive) | 1580 µM (inactive) | 1270 µM (inactive) | 2020 µM (inactive) | 148 µM (inactive) | 1270 µM (inactive) | 741 µM (inactive) | 1610 µM (inactive) | 650 µM (inactive) | 1460 µM | 879 µM (inactive) | 1140 µM (inactive) | 2130 µM (inactive) | 189 µM (inactive) | 533 µM (inactive)
COc1ccc2c(c1)Cc1c(NCCN(C)C)ccc(C(=O)NCCCN(C)CCCNC(=O)c3ccc(NCCN(C)C)c4c3Nc3ccc(OC)cc3C4)c1N2 | 0.15 µM (active) | 0.362 µM (active) | < 0.01 µM (active) | < 0.01 µM (active) | < 0.01 µM (active) | < 0.01 µM (active) | < 0.011 µM (active) | < 0.01 µM (active) | 0.0724 µM (active) | < 0.01 µM (active) | < 0.01 µM (active) | < 0.01 µM (active) | 0.154 µM (active) | 0.753 µM (active) | 0.728 µM | < 0.01 µM (active) | < 0.0158 µM (active) | < 0.0248 µM (active) | < 0.01 µM (active) | < 0.01 µM (active)
Cn1c(=O)c2nc3c(=O)n(C)c(=O)n(CC(N)=O)c3nc2n(C)c1=O | > 100 µM (inactive) | > 100 µM (inactive) | > 100 µM (inactive) | > 100 µM (inactive) | > 100 µM (inactive) | > 100 µM (inactive) | > 100 µM (inactive) | > 100 µM (inactive) | > 100 µM (inactive) | > 100 µM (inactive) | > 100 µM (inactive) |  | > 100 µM (inactive) | > 100 µM (inactive) | > 100 µM | > 100 µM (inactive) | > 100 µM (inactive) | > 100 µM (inactive) |  | > 100 µM (inactive)
Cc1ccc2c(O)cc(-c3sccc3C)nc2n1 | 0.438 µM (active) | 1.52 µM (inactive) | 0.711 µM (active) | 1.33 µM (inactive) | 0.723 µM (active) | 0.625 µM (active) | 0.427 µM (active) | 0.78 µM (active) | > 24.2 µM (inactive) | 0.122 µM (active) | 0.426 µM (active) | 0.612 µM (active) | 1.31 µM (inactive) | 0.792 µM (active) | 0.406 µM | 1.86 µM (inactive) | 0.264 µM (active) | 1.67 µM (inactive) | 0.486 µM (active) | 1.67 µM (inactive)
O=C(Cc1ccccc1)Nc1nc2ccc(Cl)cc2c2nc(-c3ccco3)nn12 | > 100 µM (inactive) | > 100 µM (inactive) | 10.1 µM (inactive) | > 100 µM (inactive) | > 100 µM (inactive) | > 21.6 µM (inactive) | > 100 µM (inactive) | > 35.7 µM (inactive) | > 35.1 µM (inactive) | 3.44 µM (inactive) | > 100 µM (inactive) | > 100 µM (inactive) | 17.7 µM (inactive) | > 100 µM (inactive) | > 100 µM | > 62.8 µM (inactive) | > 100 µM (inactive) | > 100 µM (inactive) | > 100 µM (inactive) | > 100 µM (inactive)
CCCCOC(=O)CC(CC(=O)OCCCC)(OC(C)=O)C(=O)OCCCC [ACETYLTRIBUTYL CITRATE] | > 200 µM (inactive) | 39.6 µM (inactive) | > 200 µM (inactive) | 60.8 µM (inactive) | 150 µM (inactive) | > 200 µM (inactive) | 29.6 µM (inactive) | > 200 µM (inactive) | > 200 µM (inactive) | 14.7 µM (inactive) | 132 µM (inactive) | 96.8 µM (inactive) | 1.1 µM (active) | > 200 µM (inactive) | > 177 µM | > 200 µM (inactive) | > 130 µM (inactive) | > 200 µM (inactive) | 17.2 µM (inactive) | > 164 µM (inactive)
